Laboratory results: patent US7531676B2, “Lipids” (Celltech R & D Limited, priority 1999, dated 2009)
Where a name gives a salt, the structure may show the parent alone.

Columns and labels:
[1] = test system: Plasmid DNA (pEG/acZ); assay: Agarose gel electrophoresis of lipid/plasmid DNA complexes (DNA retardation/condensation); assay type: binding
Experimental: Plasmid DNA (pEG/acZ) was prepared at a concentration of 120 μg/ml in water. A lipid according to the invention [for example the hexamine H18 described in the Example above] was prepared in a range of concentrations such that charge ratios of lipid:DNA of 0.25:1, 1:1, 2:1, 4:1, 8:1 would be obtained (based on the assumption that DNA at 120 μg/ml is equivalent to 0.387 mM of negative charge, and the hexamine H18 for example at 10 mg/ml is equivalent to 36.23 mM of positive charge). An equal volume of DNA was added dropwise to a vortexing tube containing the lipid in water. For DNase treatment, DNase I (FPLCpure, Pharmacia) was added at a concentration of 1 unit/1 μg of DNA and tubes were incubated at 37° C. for 10 minutes. To inhibit further action of DNase, EGTA was added to a final concentration of 25 mM. For pronase treatment, protease XIV (Sigma) was added to samples to a final concentration of 150 μg/ml, and samples incubated for 30 min at 37° C. Complexes were disrupted in 0.5% SDS with incubation at 55° C. for 20 min. Serum treatment involved incubating the samples in the presence of 50% foetal calf serum (final concentration) for 30 min at 37° C. EGTA was added to a final concentration of 50 mM in an attempt to prevent subsequent action of serum-associated nucleases. Finally, all samples were analysed by electrophoresis on 0.8% agarose gels.

[2] = test system: protease XIV (pronase); assay: Pronase treatment of lipid/DNA complexes, plasmid integrity by gel; conditions: protease XIV 150 μg/ml, 30 min at 37° C.
Excerpt: (§1) One of the ultimate goals of current gene therapy research is to develop a delivery system which will remain stable and effective in vivo, since this would remove the need for expensive and time-consuming ex-vivo manipulations. Since intravenous administration offers the possibility of delivery to the largest number of tissue sites, survival of the gene delivery complex in the presence of serum could be an important feature of any effective technology. Many published studies have demonstated the susceptibility of gene delivery complexes to inactivation by serum even at levels as low as 10%. This effect is due, at least in part, to the destabilisation of complexes by a poorly understood mechanism, and this can lead to degradation of the DNA within the complex by serum-associated nucleases. We have therefore formed complexes between the lipids of the invention and plasmid DNA and subjected these to treatment with purified DNase and pronase as well as with 50% foetal calf serum. Integrity of the plasmid DNA was then measured.
(§2) Plasmid DNA (pEG/acZ) was prepared at a concentration of 120 μg/ml in water. […] Finally, all samples were analysed by electrophoresis on 0.8% agarose gels.

[3] = test system: DNase I; assay: DNase treatment of lipid/DNA complexes, plasmid integrity by gel; conditions: charge ratio of at least 2:1; DNase I 1 unit/1 μg DNA, 37° C., 10 minutes
Excerpt: as §1, §2

[4] = test system: Chinese Hamster Ovary (CHO) cells; assay: CHO transfection with lipid condensed DNA, beta-galactosidase reporter; assay type: cell-based; conditions: for β-galactosidase in cell extract mUnits per mg protein: CHO cells, Lipid:DNA mass ratio 8:1, pEG/acZ plasmid; for β-galactosidase expression in the CHO cells (in words): lipid condensed DNA versus non-condensed DNA control (undetectable)
Experimental: Plasmid DNA (pEG/acZ) was prepared at concentrations of typically 60 or 120 μg/ml in water. Solutions of lipids according to the invention were prepared in water over a range of concentrations (typically 30 to 960 μg/ml). An equal volume of DNA was added dropwise to a tube containing a solution of the lipids whilst vortexing the tube.
Chinese Hamster Ovary (CHO) cells were seeded in to 24 well plates at 100,000 cells per well 24 h before experiment. Cells were washed once in Optimem™ medium prior to transfection. Wash medium was removed and replaced with 0.5 ml of Optimem™ to which the required amount of lipid condensed DNA was added (typically 1 to 5 μg DNA equivalent). Usually three replicate transfection wells were set up per condensed DNA sample tested. Cells were incubated for a further 34 h at 37° C., 5% CO2 before removal of the complex and additon of 1 ml of fresh medium (Iscoves™ medium: modified DMEM plus glutamate, asparagine, adenosine, guanosine, cytidine, uridine, thymidine and 10% dialysed foetal calf serum). Cells were cultured for a further 48-72 hours before harvesting and assay. Levels of Beta galactosidase reporter gene activity were determined using an enzyme assay system from Promega as follows. Cells were washed twice with I ml of phosphate buffered saline and solubilised in 200 ul of 1× cell lysis buffer. 50 ul of cell extract was incubated with the provided buffer and substrate o-nitrophenyl-β-D-galactopyranoside and the optical density measured spectrophoto-metrically. Levels of β-gal expression were quantitated by reference to the standard curve and related to the amount of protein in the extract (measured using the BCA assay kit from Pierce) to give a final value expressed as mU of β-gal per mg of protein.

resistance of lipid/DNA condensates to treatment by pronase [2]	resistance of condensed DNA to treatment by DNase [3]	SMILES	mobility of plasmid DNA through gel ([1]; charge ratio of 2:1 (H18:DNA), 0.8% agarose gel)	visibility of plasmid DNA by ethidium bromide fluorescence (DNA fully condensed) ([1]; charge ratios higher than 2:1)	β-galactosidase in cell extract mUnits per mg protein [4]	β-galactosidase expression in the CHO cells (in words) [4]
resistant	resistant	NCCCNCCCCNCC(CCCCCCNC(=O)CCCCCCCCCCCCCCCCCCCCCCCNC(=O)[C@H](O)[C@@H](O)[C@H](O)[C@H](O)CO)CNCCCCNCCCN (stereo in doubt) [Lipid H18, (trifluoroacetate) salt]	no DNA entered the gel	no longer visible	40 ± 9 mUnits per mg protein	significant β-galactosidase expression
		NCCCCNCC(CCCCCCNC(=O)CCCCCCCCCCCCCCCCCCCCCCCNC(=O)[C@H](O)[C@H](O)[C@H](O)[C@H](O)CO)CNCCCCN (stereo in doubt) [Lipid H3, (trifluoroacetate) salt]			11 ± 4 mUnits per mg protein	significant β-galactosidase expression
